Data published in US20220348590A1, “CYCLOOXYGENASE-2 INHIBITORS AND USES THEREOF” (The Board Institute, Inc., priority 2019, published 2022).
Like-named read-outs stand apart in the source and are kept apart here.

Molecular target: T1, human recombinant COX2 (hCOX2) (UniProt P35354)
T1 sequence (P35354 1-604): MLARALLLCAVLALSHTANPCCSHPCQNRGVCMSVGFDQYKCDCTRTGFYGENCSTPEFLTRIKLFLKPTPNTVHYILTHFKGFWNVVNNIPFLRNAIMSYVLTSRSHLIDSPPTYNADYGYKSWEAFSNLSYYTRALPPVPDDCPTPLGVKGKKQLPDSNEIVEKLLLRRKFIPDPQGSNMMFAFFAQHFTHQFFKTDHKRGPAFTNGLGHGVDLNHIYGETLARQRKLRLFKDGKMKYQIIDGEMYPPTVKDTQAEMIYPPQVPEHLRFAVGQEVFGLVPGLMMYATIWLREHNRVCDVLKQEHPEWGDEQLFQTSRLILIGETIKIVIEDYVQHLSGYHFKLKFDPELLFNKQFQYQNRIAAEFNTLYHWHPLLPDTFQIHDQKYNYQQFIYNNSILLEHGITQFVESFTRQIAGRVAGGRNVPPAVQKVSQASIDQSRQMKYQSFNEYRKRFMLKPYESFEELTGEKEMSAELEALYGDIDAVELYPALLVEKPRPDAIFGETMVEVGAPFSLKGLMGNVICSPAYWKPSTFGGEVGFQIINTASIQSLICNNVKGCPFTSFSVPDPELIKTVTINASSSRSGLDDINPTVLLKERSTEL
Assay: LCMS-based COX2 enzymatic inhibition assay (PGE2 quantification)
Type: biochemical
Design: COX2 2 minutes pge2/pge2d4 area ratio Avg; other: 2 minutes; readout pge2/pge2d4 area ratio; average; COX2 2 minutes pge2/pge2d4 area ratio Avg; LLE; average LLE; COX2 2 minutes pge2 area (counts) Avg; readout pge2 area (counts); other: 2 min; "ovine COX2 (oCOX2), human recombinant COX2 (hCOX2)"
Conditions: for IC50: average
Outline: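 PGE2 formed from arachidonic acid (final 5 μM, 2 min) was measured by LC-MS-MS against DMSO controls. Enzyme (oCOX-1 0.1 μg or hCOX2 0.2 μg) with hematin/epinephrine cofactors at pH 8.0 was given 10 min at 37 °C with compound first. Twelve-point curves run three times gave IC50.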

[1] = read-out: COX2 2 minutes pge2/pge2d4 area ratio Avg. IC50 (microM), 2 minutes, readout pge2/pge2d4 area ratio
[2] = 2 minutes, readout pge2 area (counts), average LLE

Row | Compound | IC50 [1] [µM] | COX2 2 minutes pge2 area (counts) Avg. LLE [2] | COX2 10 minutes pge2 area (counts) Avg. LLE (10 minutes, readout pge2 area (counts), average LLE) | IC50 (10 minutes, readout pge2 area (counts), read-out: COX2 10 minutes pge2 area (counts) Avg. IC50) [µM]
1 | CS(=O)(=O)c1ccc(-c2cncc(N3CCc4ccccc4C3)n2)cc1 [Compound 324] | 5.2 | – | – | –
2 | CS(=O)(=O)c1ccc(-c2cc3nn(Cc4cccs4)cc3cn2)cc1 [Compound 325] | 5.2 | – | – | –
3 | CS(=O)(=O)c1ccc(-c2cncc(N3CCCC3)n2)cc1 [Compound 326] | 5.2 | 4.034 | 4.754 | 0.99
4 | CS(=O)(=O)c1ccc(-c2nc(NCc3cccs3)no2)cc1 [Compound 327] | 5.2 | – | – | –
5 | CS(=O)(=O)c1ccc(-c2cncc(N3Cc4cccnc4C3)n2)cc1 [Compound 328] | 5.2 | 4.414 | – | –
